We go through 7 compounds from patent publication US20230026696A1, “TRPV4 RECEPTOR LIGANDS” (UNIVERSITY OF UTAH RESEARCH FOUNDATION, priority 2019, published 2023).

Experiment [1] addresses T1, human TRPV4 (Homo sapiens, UniProt Q9HBA0).
T1 construct: expressed in transfected cells
The experiment is described as follows: Fluorometric cell-based Ca2+ flux assay, HEK-293 cells stably overexpressing human TRPV4. The conditions noted are these: for IC50: HEK-293 stably overexpressing human TRPV4, agonist GSK1016790A 30 nM. Summed up: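 HEK-293 cells stably overexpressing human TRPV4, Fluo 4-loaded, pre-incubated 30 min at 37° C with compound, then stimulated with 30 nM GSK1016790A (final). Max ΔF/s over 1 min, media-corrected, expressed relative to no-antagonist control; IC50 from ≥8 concentrations, ≥3 replicates.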

Experiment [2] concerns the target T2, human TRPA1 (Homo sapiens, UniProt O75762).
T2 construct: expressed in transfected cells
The experiment is described as follows: Selectivity Ca2+ flux assay, TRPA1 stably over-expressed in HEK-293 cells. The conditions noted are these: agonist 2,4-ditert butylphenol (50 μM). It is filed as cell-based. On the procedure:
(§1) To determine selectivity of the various test compounds for TRPV4, select compounds with activity in the TRPV4 fluorometric cell-based Ca^2+ flux assays were also tested for inhibition of human TRPA1 stably over-expressed in HEK-293 cells, TRPM8 stably over-expressed in HEK-293 cells, TRPV3 stably over-expressed in HEK-293 cells, and TRPV1 stably overexpressed in human lung epithelial (BEAS-2B) cells. The assays were conducted substantially as described above for HEK-293 cells that stably overexpress TRPV4, although for TRPV1, the BEAS-2B cells were maintained in LHC-9 media containing Geneticin (300 μg/mL) and were loaded with Fluo-4AM at room temperature. The agonist for TRPA1 was 2,4-ditert butylphenol (50 μM), for TRPM8 was icilin (50 μM), for TRPV3 was carvacrol (300 μM), and for TRPV1 was nonivamide (5 μM). All other aspects of the assay described above were the same.

In experiment [3] the target is T3, TRPM8 (Homo sapiens, UniProt Q7Z2W7).
T3 construct: expressed in transfected cells
The experiment is described as follows: Selectivity Ca2+ flux assay, TRPM8 stably over-expressed in HEK-293 cells. It is filed as cell-based. The conditions noted are these: agonist icilin (50 μM). How it is done: as §1

Experiment [4] deals with T4, TRPV3 (Homo sapiens, UniProt Q8NET8).
T4 construct: expressed in transfected cells
T4 sequence (Q8NET8 1-790): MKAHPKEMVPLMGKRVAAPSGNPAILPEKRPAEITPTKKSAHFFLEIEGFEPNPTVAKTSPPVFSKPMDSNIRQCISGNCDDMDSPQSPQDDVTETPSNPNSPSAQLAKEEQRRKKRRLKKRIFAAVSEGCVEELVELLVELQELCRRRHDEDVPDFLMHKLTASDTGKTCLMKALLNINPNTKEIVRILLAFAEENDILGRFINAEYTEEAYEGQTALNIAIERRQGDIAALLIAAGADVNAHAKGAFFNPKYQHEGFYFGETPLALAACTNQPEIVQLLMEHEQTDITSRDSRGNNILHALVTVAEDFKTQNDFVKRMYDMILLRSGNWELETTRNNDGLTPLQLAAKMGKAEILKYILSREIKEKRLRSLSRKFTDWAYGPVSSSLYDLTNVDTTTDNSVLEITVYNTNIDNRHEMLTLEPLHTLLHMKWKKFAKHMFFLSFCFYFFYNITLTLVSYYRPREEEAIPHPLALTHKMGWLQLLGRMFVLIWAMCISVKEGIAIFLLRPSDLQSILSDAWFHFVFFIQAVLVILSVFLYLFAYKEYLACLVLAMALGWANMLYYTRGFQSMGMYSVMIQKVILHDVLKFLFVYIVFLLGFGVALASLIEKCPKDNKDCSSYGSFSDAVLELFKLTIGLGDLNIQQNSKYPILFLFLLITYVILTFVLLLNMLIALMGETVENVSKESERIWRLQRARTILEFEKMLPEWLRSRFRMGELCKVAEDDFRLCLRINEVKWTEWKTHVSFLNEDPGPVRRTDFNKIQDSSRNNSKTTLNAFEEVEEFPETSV
Nature of the experiment: Selectivity Ca2+ flux assay, TRPV3 stably over-expressed in HEK-293 cells. The conditions noted are these: agonist carvacrol (300 μM). It is filed as cell-based. How it is done:
as §1

Experiment [5] deals with T5, TRPV1 (Homo sapiens, UniProt Q8NER1).
T5 construct: expressed in transfected cells
Nature of the experiment: Selectivity Ca2+ flux assay, TRPV1 stably overexpressed in human lung epithelial (BEAS-2B) cells. The conditions noted are these: agonist nonivamide (5 μM). The class given is cell-based. On the procedure: as §1

The subject of experiment [6] is intraocular pressure (IOP). The conditions noted are these: applied at 0.3-1.0 mM; Ryskamp et al., Sci Rep 2016; cited from earlier work.
Experiment [7] deals with intraocular pressure (IOP). The experiment is described as follows: In vivo tonometric IOP assay in microbead mouse model of ocular hypertension.
Experiment [8] concerns intraocular pressure (IOP). The conditions noted are these: OAG-affected dogs; literature; cited from earlier work.
For experiment [9], the system named is intraocular pressure (IOP). The experiment is described as follows: In vivo tonometric IOP assay in microbead mouse model of ocular hypertension. The conditions noted are these: FIG. 2 right panel; P<0.01 / P<0.001, two-way ANOVA. On the procedure:
FIG. 1 is a graph showing the effect that two concentrations of topical compound 11 (0.01% and 0.1%), 0.5% timolol, and control PBS had on IOP in the microbead (MB) mouse model of ocular hypertension (N=3 separate experiments, with 7-10 mice per experimental cohort). Error bars=±S.E.M. Ocular hypertension in the mouse model of primary open angle glaucoma (POAG) was induced with intracameral injection of polystyrene microbeads. Antagonist stock solutions (10 mM) were prepared in DMSO, the final concentrations were made in PBS diluted to <0.0001% DMSO.
FIG. 2 is a bar chart showing the cumulative data for pre-IOP elevation cohorts of mouse eyes (N≥3 separate experiments, with 7-10 mice per experimental cohort). Left panel: the IOP data are plotted as % of the control value of the timolol-treated eye cohort. Middle panel: MB injection elevated IOP in all experimental cohorts.
A tonometric assay was used to measured IOP changes in mice models of ocular hypertension over a period of weeks following topical application of the compounds.
To prepare the mice models of ocular hypertension, mice were anesthetized with an intraperitoneal (IP) injection of ketamine/xylazine (90 mg/10 mg/kg of body weight). Eye drops of 0.5% proparacaine hydrochloride with 1% tropicamide ophthalmic solution (Bausch & Lomb) were applied to numb and dilate the eyes of the mice. IOP was elevated in the ipsilateral eye by injecting 2 μl of polystyrene microbeads (7.8 μm FluoSpheres; Bangs Laboratories) with a Hamilton syringe into the anterior chamber over 60 seconds. The contralateral eye was injected with phosphate buffered saline (PBS).
A rebound tonometer was used to measure IOP at 1, 2, 6 and 10 hours post-injection after topical administration of Compounds 11 and 52 and timolol, a known medication for treatment of IOP associated with ocular hypertension and glaucoma. The IOP was determined from the means of 10 to 20 readings, following the protocol described in Ryskamp et al., Sci Rep 6:30583, 2016. […]

Structures can show the parent of a compound that is named as a salt.

T1 sequence (Q9HBA0 whole entry): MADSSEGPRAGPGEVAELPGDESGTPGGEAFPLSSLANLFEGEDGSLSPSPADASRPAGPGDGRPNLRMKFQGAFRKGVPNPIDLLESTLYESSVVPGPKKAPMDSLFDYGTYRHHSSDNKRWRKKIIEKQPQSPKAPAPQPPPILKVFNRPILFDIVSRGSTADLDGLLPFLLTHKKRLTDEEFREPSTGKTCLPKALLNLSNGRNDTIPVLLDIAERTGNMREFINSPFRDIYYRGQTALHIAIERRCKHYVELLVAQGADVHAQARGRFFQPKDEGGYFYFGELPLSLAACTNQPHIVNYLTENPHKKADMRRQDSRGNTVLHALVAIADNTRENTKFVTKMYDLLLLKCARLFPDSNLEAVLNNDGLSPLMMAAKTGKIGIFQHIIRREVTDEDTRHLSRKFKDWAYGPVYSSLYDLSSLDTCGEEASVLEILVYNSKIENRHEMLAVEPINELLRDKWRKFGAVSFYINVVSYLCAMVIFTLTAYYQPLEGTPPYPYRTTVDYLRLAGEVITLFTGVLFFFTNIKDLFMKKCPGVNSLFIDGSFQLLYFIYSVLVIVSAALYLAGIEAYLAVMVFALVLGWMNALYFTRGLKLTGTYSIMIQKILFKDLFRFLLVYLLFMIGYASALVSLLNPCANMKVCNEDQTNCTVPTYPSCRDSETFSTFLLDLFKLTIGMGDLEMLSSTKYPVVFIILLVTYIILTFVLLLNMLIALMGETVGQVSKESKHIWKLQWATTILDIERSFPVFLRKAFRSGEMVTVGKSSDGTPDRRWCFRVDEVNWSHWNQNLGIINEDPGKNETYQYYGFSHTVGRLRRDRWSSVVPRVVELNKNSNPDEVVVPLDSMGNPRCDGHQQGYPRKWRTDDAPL
T2 sequence (O75762 whole entry): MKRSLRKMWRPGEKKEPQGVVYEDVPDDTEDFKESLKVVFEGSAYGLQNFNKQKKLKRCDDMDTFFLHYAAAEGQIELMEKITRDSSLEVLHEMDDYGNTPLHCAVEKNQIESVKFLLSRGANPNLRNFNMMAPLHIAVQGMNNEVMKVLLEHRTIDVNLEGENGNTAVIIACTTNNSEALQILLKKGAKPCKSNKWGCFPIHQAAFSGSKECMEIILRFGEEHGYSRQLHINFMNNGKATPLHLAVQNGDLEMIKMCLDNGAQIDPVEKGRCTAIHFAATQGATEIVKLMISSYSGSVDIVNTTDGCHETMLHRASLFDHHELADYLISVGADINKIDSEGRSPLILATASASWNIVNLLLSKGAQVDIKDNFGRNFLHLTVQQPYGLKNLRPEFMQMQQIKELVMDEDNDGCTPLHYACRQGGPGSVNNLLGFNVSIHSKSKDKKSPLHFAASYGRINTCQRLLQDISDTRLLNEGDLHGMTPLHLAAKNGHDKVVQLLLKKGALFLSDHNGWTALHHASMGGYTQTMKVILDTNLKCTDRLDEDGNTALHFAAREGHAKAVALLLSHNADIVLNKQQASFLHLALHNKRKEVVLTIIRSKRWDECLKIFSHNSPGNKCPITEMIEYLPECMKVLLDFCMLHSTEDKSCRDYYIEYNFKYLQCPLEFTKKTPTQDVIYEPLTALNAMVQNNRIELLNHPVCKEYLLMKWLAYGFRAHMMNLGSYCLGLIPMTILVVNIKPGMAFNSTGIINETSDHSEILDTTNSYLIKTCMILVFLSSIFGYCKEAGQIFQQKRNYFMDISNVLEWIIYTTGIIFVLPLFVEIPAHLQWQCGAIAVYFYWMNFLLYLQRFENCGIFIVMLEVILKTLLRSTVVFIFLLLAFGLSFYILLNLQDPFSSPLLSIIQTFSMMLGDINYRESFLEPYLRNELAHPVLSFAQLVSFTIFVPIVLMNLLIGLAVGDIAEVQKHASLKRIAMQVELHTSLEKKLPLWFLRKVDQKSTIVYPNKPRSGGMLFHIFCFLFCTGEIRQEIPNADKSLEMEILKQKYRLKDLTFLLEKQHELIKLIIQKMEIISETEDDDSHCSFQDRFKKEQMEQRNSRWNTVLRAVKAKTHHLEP
T3 sequence (Q7Z2W7 whole entry): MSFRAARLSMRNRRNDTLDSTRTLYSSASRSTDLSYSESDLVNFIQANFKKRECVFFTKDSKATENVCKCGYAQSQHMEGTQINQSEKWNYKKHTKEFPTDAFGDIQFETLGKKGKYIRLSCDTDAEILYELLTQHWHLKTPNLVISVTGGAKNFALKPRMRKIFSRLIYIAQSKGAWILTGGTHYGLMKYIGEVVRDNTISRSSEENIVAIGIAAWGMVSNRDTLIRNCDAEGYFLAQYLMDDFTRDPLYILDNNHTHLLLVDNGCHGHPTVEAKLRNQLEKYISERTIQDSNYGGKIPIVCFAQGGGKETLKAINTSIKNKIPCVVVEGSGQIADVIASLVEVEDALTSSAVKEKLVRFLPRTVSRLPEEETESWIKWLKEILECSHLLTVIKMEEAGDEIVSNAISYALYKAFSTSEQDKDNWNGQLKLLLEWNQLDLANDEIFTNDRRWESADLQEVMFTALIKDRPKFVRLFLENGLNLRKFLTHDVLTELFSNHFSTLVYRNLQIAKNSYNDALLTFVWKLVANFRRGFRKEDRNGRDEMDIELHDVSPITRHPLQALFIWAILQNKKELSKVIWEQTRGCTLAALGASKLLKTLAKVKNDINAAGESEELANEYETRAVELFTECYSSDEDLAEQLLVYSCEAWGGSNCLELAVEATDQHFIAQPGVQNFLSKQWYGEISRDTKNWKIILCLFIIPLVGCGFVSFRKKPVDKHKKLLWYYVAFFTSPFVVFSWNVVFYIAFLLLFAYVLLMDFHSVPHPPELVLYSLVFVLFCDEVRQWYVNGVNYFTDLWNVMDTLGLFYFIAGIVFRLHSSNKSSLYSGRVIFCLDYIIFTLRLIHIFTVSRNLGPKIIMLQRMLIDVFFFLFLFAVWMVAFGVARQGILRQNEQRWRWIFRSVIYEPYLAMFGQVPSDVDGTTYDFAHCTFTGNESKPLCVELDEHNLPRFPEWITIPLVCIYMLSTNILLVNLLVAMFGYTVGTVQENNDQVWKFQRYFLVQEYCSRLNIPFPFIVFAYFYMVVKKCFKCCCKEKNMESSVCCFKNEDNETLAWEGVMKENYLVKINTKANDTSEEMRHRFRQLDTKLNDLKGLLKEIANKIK
T5 sequence (Q8NER1 whole entry): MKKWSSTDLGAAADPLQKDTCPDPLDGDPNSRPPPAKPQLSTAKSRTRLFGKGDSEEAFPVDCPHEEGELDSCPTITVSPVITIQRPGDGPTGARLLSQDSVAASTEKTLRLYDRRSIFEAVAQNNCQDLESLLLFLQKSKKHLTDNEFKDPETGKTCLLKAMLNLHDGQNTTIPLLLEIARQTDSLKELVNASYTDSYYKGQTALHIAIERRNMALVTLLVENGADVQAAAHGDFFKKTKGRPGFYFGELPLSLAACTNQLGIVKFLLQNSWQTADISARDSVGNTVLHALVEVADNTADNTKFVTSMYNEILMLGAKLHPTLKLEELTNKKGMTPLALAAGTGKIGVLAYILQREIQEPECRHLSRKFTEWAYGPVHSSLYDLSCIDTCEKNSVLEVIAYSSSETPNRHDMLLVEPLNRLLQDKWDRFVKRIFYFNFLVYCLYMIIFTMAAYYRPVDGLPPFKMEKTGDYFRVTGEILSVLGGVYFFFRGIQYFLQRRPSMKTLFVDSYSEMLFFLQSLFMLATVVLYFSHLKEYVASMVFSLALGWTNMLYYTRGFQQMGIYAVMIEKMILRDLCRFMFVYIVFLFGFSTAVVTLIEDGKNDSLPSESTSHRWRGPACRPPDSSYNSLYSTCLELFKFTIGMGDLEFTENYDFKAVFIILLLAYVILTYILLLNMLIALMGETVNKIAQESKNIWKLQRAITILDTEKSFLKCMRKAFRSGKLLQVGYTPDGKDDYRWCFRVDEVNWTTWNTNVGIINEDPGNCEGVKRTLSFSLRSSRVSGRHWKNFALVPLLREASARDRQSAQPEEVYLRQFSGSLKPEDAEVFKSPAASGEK

Turning to `CNCC1(COc2ccc(C#N)c(F)c2)CN(S(=O)(=O)c2ccc(Cl)cc2Cl)C1` [Compound 16, 4-((1-((2,4-Dichlorophenyl)sulfonyl)-3-((methylamino)methyl)azetidin-3-yl)methoxy)-2-fluorobenzonitrile hydrochloride], the IC50 in [1] was 0.0006 µM; in experiment [2] it was 20.7 µM; in experiment [3], 17.8 µM; in experiment [4] it was over 100 µM; in [5], 6 µM. In addition, in experiment [1] (comparison of IC50 values), the “selectivity for TRPV4 versus TRPA1, TRPM8, TRPV3 and TRPV1” value was “substantially more selective for TRPV4”.
Turning to `N#Cc1ccc(OCC2(CNCCO)CN(S(=O)(=O)c3ccc(Cl)cc3Cl)C2)cc1F` [Compound 17, 4-((1-((2,4-Dichlorophenyl)sulfonyl)-3-(((2-hydroxyethyl)amino)methyl)azetidin-3-yl)methoxy)-2-fluorobenzonitrile], the IC50 in experiment [1] is 0.0002 to 0.0006 µM; in experiment [2], over 35.5 µM; in experiment [3], 25.4 µM; in experiment [4], over 50 µM; in experiment [5] it was 5.3 µM.
The compound `N#Cc1ccc(OCC2(CNC3CCOCC3)CN(S(=O)(=O)c3ccccc3C#N)C2)cc1F` [Compound 116, 4-((1-((2-Cyanophenyl)sulfonyl)-3-(((tetrahydro-2H-pyran-4-yl)amino)methyl)azetidin-3-yl)methoxy)-2-fluorobenzonitrile] had an IC50 in experiment [1] of 0.00041 µM.
On the same count and under the same terms, the same measure for `C[C@H](O)CNCC1(COc2ccc(C#N)c(F)c2)CN(S(=O)(=O)c2ccccc2C#N)C1` [Compound 117, (S)-4-((1-((2-Cyanophenyl)sulfonyl)-3-(((2-hydroxypropyl)amino)methyl)azetidin-3-yl)methoxy)-2-fluorobenzonitrile]: 0.0016 µM.
With `Cc1c(C(=O)Nc2cccc(C(F)(F)F)c2)cc(-c2ccccc2)n1CCCN1CCOCC1` [HC067047, reference compound], the “IOP in hypertensive mouse eyes” value in experiment [6] is listed as “lowered IOP”. For the same compound, the “IOP levels in MB-treated eyes, intraperitoneal injection” value in [7] (FIG. 2 right panel, intraperitoneal) is reported as “significantly lowered IOP levels”.
Regarding `CCN[C@H]1C[C@H](C)S(=O)(=O)c2sc(S(N)(=O)=O)cc21` [dorzolamide HCl], the IOP lowering in [8] is 3.8-5.0 mm Hg.
Turning to `CC(C)(C)NC[C@H](O)COc1nsnc1N1CCOCC1` [timolol, reference compound], in [9], the “IOP levels in MB-treated eyes, topical application” value is “significantly lowered IOP levels”. The “IOP after topical administration” value in experiment [7] (mouse model of ocular hypertension, compounds 1 μM and 10 μM, timolol 0.5%, FIG. 1) is “lowered the IOP”. In experiment [7] (mouse model of ocular hypertension, topical, compounds 1 μM and 10 μM, timolol 0.5%), the “protection of RGCs” value is given as “protected RGCs”.
